# Measured values from patent US20240376163A1, “PEPTIDE FOR INHIBITING CALCINEURIN AND USE THEREOF” (Seoul National University R&DB Foundation, priority 2023, published 2024).
# Tested on: Jurkat T cells
# Experiment: mRNA sequencing of activated Jurkat T cells
# Format: cell-based, human
sequence,measurement,setting,value
PEITVTPPTP [CABIN1-L-1-2],GPR108 FPKM,P+I,37.394 FPKM
same,GPR183 FPKM,P+I,4.735 FPKM
same,GRAP2 FPKM,P+I,11.197 FPKM
same,GRK5 FPKM,P+I,8.975 FPKM
same,GZMH FPKM,P+I,13.893 FPKM
same,HAPLN3 FPKM,P+I,58.345 FPKM
same,HDC FPKM,P+I,23.209 FPKM
same,HHIP FPKM,P+I,6.793 FPKM
same,HHIP-AS1 FPKM,P+I,29.854 FPKM
same,HIVEP2 FPKM,P+I,9.184 FPKM
same,HSP90B1 FPKM,P+I,910.415 FPKM
same,HSP90B2P FPKM,P+I,9.619 FPKM
same,HSPA5 FPKM,P+I,449.173 FPKM
same,ICAM1 FPKM,P+I,12.914 FPKM
same,ID2 FPKM,P+I,15.335 FPKM
same,IER2 FPKM,P+I,126.884 FPKM
same,IER3 FPKM,P+I,26.899 FPKM
same,IFFO2 FPKM,P+I,3.163 FPKM
same,IFIH1 FPKM,P+I,12.37 FPKM
same,IFNG FPKM,P+I,8.858 FPKM
same,IGLL1 FPKM,P+I,3.244 FPKM
same,IGSF9B FPKM,P+I,8.992 FPKM
same,IL2RA FPKM,P+I,10.904 FPKM
same,IL3 FPKM,P+I,6.298 FPKM
same,IL4I1 FPKM,P+I,7.279 FPKM
same,IL16 FPKM,P+I,8.304 FPKM
same,IL22 FPKM,P+I,3.136 FPKM
same,IL23A FPKM,P+I,17.874 FPKM
same,IMPA2 FPKM,P+I,2.882 FPKM
same,IRF8 FPKM,P+I,1.914 FPKM
same,IRF9 FPKM,P+I,39.375 FPKM
same,ISM1 FPKM,P+I,3.737 FPKM
same,JAK3 FPKM,P+I,8.871 FPKM
same,JUN FPKM,P+I,3.58 FPKM
same,JUNB FPKM,P+I,56.126 FPKM
same,KBTBD11 FPKM,P+I,2.772 FPKM
same,KCNK5 FPKM,P+I,4.904 FPKM
same,KCTD11 FPKM,P+I,2.303 FPKM
same,KIAA0922 FPKM,P+I,12.911 FPKM
same,KIF1B FPKM,P+I,13.254 FPKM
same,KIF3B FPKM,P+I,14.583 FPKM
same,KLF2 FPKM,P+I,1.375 FPKM
same,KSR1 FPKM,P+I,5.998 FPKM
same,LAIR2 FPKM,P+I,3.695 FPKM
same,LAMP3 FPKM,P+I,9.828 FPKM
same,LAX1 FPKM,P+I,7.578 FPKM
same,LDLRAP1 FPKM,P+I,0.878 FPKM
same,LIME1 FPKM,P+I,11.879 FPKM
same,LINC00152 FPKM,P+I,31.801 FPKM
same,LINC00426 FPKM,P+I,0.675 FPKM
same,LINC00528 FPKM,P+I,5.927 FPKM
same,LINC00539 FPKM,P+I,2.351 FPKM
same,LINC00977 FPKM,P+I,0.266 FPKM
same,LOC729603 FPKM,P+I,3.329 FPKM
same,LRRC8B FPKM,P+I,4.298 FPKM
same,LRRC45 FPKM,P+I,4.264 FPKM
same,LYPD3 FPKM,P+I,2.662 FPKM
same,MAP2K3 FPKM,P+I,43.237 FPKM
same,MAP2K6 FPKM,P+I,0.955 FPKM
same,MBOAT2 FPKM,P+I,3.202 FPKM
same,MCM4 FPKM,P+I,27.291 FPKM
same,MCM5 FPKM,P+I,33.895 FPKM
same,METRNL FPKM,P+I,7.881 FPKM
same,MIR221 FPKM,P+I,10.092 FPKM
same,MIR4435-1HG FPKM,P+I,16.303 FPKM
same,MIR6891 FPKM,P+I,31.815 FPKM
same,MMP10 FPKM,P+I,22.372 FPKM
same,MRPL39 FPKM,P+I,188.834 FPKM
same,MYO1D FPKM,P+I,5.995 FPKM
same,MYO1G FPKM,P+I,65.452 FPKM
same,MYO7B FPKM,P+I,12.661 FPKM
same,NAMPT FPKM,P+I,54.272 FPKM
same,NDFIP1 FPKM,P+I,24.432 FPKM
same,NDFIP2 FPKM,P+I,12.598 FPKM
same,NDST3 FPKM,P+I,5.621 FPKM
same,NEIL3 FPKM,P+I,8.336 FPKM
same,NEXN FPKM,P+I,5.587 FPKM
same,NFE2L3 FPKM,P+I,28.495 FPKM
same,NFKBIA FPKM,P+I,70.837 FPKM
same,NFKBID FPKM,P+I,8.294 FPKM
same,NFKBIE FPKM,P+I,11.793 FPKM
same,NINJ1 FPKM,P+I,54.452 FPKM
same,NKD2 FPKM,P+I,3.105 FPKM
same,NKX3-1 FPKM,P+I,8.412 FPKM
same,NLRC5 FPKM,P+I,37.7 FPKM
same,NPY FPKM,P+I,4.799 FPKM
same,NR4A1 FPKM,P+I,34.85 FPKM
same,NR4A2 FPKM,P+I,0.356 FPKM
same,NRROS FPKM,P+I,26.059 FPKM
same,NT5M FPKM,P+I,1.643 FPKM
same,NXN FPKM,P+I,1.571 FPKM
same,OAS3 FPKM,P+I,18.24 FPKM
same,OSBPL3 FPKM,P+I,23.298 FPKM
same,PARP9 FPKM,P+I,84.386 FPKM
same,PARP14 FPKM,P+I,72.911 FPKM
same,PCBP3 FPKM,P+I,4.642 FPKM
same,PDE3B FPKM,P+I,5.194 FPKM
same,PEAK1 FPKM,P+I,9.633 FPKM
same,PELI1 FPKM,P+I,8.465 FPKM
same,PHEX FPKM,P+I,0.786 FPKM
same,PHF7 FPKM,P+I,3.075 FPKM
same,PHLDA1 FPKM,P+I,52.893 FPKM
same,PIDD1 FPKM,P+I,4.471 FPKM
same,PIM3 FPKM,P+I,72.895 FPKM
same,PKIA FPKM,P+I,18.138 FPKM
same,PLAU FPKM,P+I,82.517 FPKM
same,PLEKHO1 FPKM,P+I,36.376 FPKM
same,PLK3 FPKM,P+I,7.036 FPKM
same,PMAIP1 FPKM,P+I,37.469 FPKM
same,PMEPA1 FPKM,P+I,2.393 FPKM
same,PODXL FPKM,P+I,1.509 FPKM
same,POU3F2 FPKM,P+I,0.696 FPKM
same,PPFIBP1 FPKM,P+I,12.117 FPKM
same,PPM1H FPKM,P+I,4.178 FPKM
same,PRKCA FPKM,P+I,11.132 FPKM
same,PTK2 FPKM,P+I,13.391 FPKM
same,PTPN22 FPKM,P+I,5.119 FPKM
same,PTPRE FPKM,P+I,14.28 FPKM
same,PWWP2B FPKM,P+I,3.446 FPKM
same,PXMP2 FPKM,P+I,7.334 FPKM
same,RAG1 FPKM,P+I,0.265 FPKM
same,RAG2 FPKM,P+I,0.385 FPKM
same,RAP1GAP2 FPKM,P+I,0.285 FPKM
same,RAP1GAP FPKM,P+I,1.799 FPKM
same,RDH10 FPKM,P+I,5.524 FPKM
same,REL FPKM,P+I,5.699 FPKM
same,RELB FPKM,P+I,40.689 FPKM
same,RGS3 FPKM,P+I,2.303 FPKM
same,RGS16 FPKM,P+I,5.595 FPKM
same,RMI1 FPKM,P+I,8.198 FPKM
same,RORB FPKM,P+I,3.292 FPKM
same,S1PR1 FPKM,P+I,0.461 FPKM
same,SAMD1 FPKM,P+I,12.809 FPKM
same,SECISBP2L FPKM,P+I,12.883 FPKM
same,SELPLG FPKM,P+I,3.724 FPKM
same,SEMA7A FPKM,P+I,34.623 FPKM
same,SERPINB2 FPKM,P+I,14.103 FPKM
same,SERPINE1 FPKM,P+I,4.431 FPKM
same,SH2B3 FPKM,P+I,14.803 FPKM
same,SH2D5 FPKM,P+I,3.557 FPKM
same,SH3BGRL3 FPKM,P+I,351.357 FPKM
same,SH3RF2 FPKM,P+I,32.15 FPKM
same,SHC4 FPKM,P+I,0.686 FPKM
same,SIT1 FPKM,P+I,34.287 FPKM
same,SIX6 FPKM,P+I,19.444 FPKM
same,SLC2A3 FPKM,P+I,40.147 FPKM
same,SLC2A4RG FPKM,P+I,2.168 FPKM
same,SLC7A5 FPKM,P+I,226.44 FPKM
same,SLC25A45 FPKM,P+I,2.626 FPKM
same,SLCO3A1 FPKM,P+I,3.095 FPKM
same,SLIT1 FPKM,P+I,2.815 FPKM
same,SMIM14 FPKM,P+I,3.572 FPKM
same,SOCS1 FPKM,P+I,11.547 FPKM
same,SOCS3 FPKM,P+I,9.392 FPKM
same,SOSTDC1 FPKM,P+I,7.34 FPKM
same,SPRY2 FPKM,P+I,17.876 FPKM
same,SREBF1 FPKM,P+I,12.747 FPKM
same,ST3GAL6-AS1 FPKM,P+I,8.479 FPKM
same,ST8SIA4 FPKM,P+I,8.921 FPKM
same,STARD4 FPKM,P+I,16.105 FPKM
same,STAT1 FPKM,P+I,527.58 FPKM
same,STAT5A FPKM,P+I,3.055 FPKM
same,STX11 FPKM,P+I,2.972 FPKM
same,SYTL1 FPKM,P+I,12.555 FPKM
same,TBC1D10C FPKM,P+I,15.764 FPKM
same,TBC1D20 FPKM,P+I,18.427 FPKM
same,TBX21 FPKM,P+I,39.746 FPKM
same,THY1 FPKM,P+I,3.297 FPKM
same,TIMP2 FPKM,P+I,1.952 FPKM
same,TM4SF1 FPKM,P+I,0.907 FPKM
same,TM7SF3 FPKM,P+I,25.052 FPKM
same,TMEM229B FPKM,P+I,7.747 FPKM
same,TMTC4 FPKM,P+I,3.005 FPKM
same,TNFRSF4 FPKM,P+I,11.916 FPKM
same,TNFRSF12A FPKM,P+I,6.523 FPKM
same,TNFRSF14 FPKM,P+I,12.09 FPKM
same,TNFSF9 FPKM,P+I,2.651 FPKM
same,TNRC6C FPKM,P+I,4.485 FPKM
same,TNS3 FPKM,P+I,1.418 FPKM
same,TRAF1 FPKM,P+I,24.962 FPKM
same,TRAT1 FPKM,P+I,5.507 FPKM
same,TRIM22 FPKM,P+I,3.316 FPKM
same,TSHR FPKM,P+I,1.574 FPKM
same,TSPAN2 FPKM,P+I,2.119 FPKM
same,TSPAN7 FPKM,P+I,42.604 FPKM
same,TTC28 FPKM,P+I,1.926 FPKM
same,TUBB2A FPKM,P+I,10.912 FPKM
same,TUBB3 FPKM,P+I,5.423 FPKM
same,UHRF1BP1L FPKM,P+I,7.889 FPKM
same,USP30-AS1 FPKM,P+I,9.017 FPKM
same,VANGL1 FPKM,P+I,8.842 FPKM
same,VASH2 FPKM,P+I,4.245 FPKM
same,VGF FPKM,P+I,54.294 FPKM
same,XAF1 FPKM,P+I,16.914 FPKM
same,XBP1 FPKM,P+I,48.525 FPKM
same,XYLB FPKM,P+I,2.311 FPKM
same,YBX2 FPKM,P+I,1.594 FPKM
same,ZC3H12A FPKM,P+I,17.547 FPKM
same,CD27 and CD70 expression,upon T-cell activation,inhibited CD27 and CD70
same,"RNA levels of representative T-cell activation markers (IL2, IL3, NFATC1, CCL4, CCL20, CXCL8)",upon T-cell activation,reduced RNA levels of representative T-cell activation markers
